From patent US4241184A, “Secondary alcohol dehydrogenase enzyme and use thereof” (priority 1979, dated 1980)
Where two headings read alike, the source gives them in different places.

What was measured:
[1] = system: secondary alcohol dehydrogenase; assay: Purified yeast secondary alcohol dehydrogenase: substrates, electron acceptors, inhibitors, stoichiometry; format: biochemical, Pichia sp. NRRL Y-11,328
Description: Large scale cultures of Pichia sp. NRRL Y-11,328 were grown with aeration at 30° C. in a 14-liter New Brunswick f fermentor in a mineral salt medium containing methanol (0.4%, v/v) as the sole carbon source. The cells (200 g., wet weight) were suspended in […] sodium phosphate buffer, pH 7.0, containing 1 mM dithiothreitol (buffer A), and crude extracts were prepared as described previously. To the crude extracts, 18 ml. of protamine sulfate solution [2% solution in 0.1 M tris (hydroxymethyl) aminomethane (tris) base] was added dropwise with continuous stirring. After standing for 30 min., the extracts were centrifuged at 20,000×g. for 60 min. The supernatant solution was fractionated with solid ammonium sulfate. Extracts were brought to 50% of saturation with respect to ammonium sulfate by addition of 313 g. of the salt per liter of extract. Precipitated proteins was removed by centrifugation, and 137 g. of ammonium sulfate was added per liter of the supernatant liquid to bring it to 70% of saturation. Material precipitating between 50 and 70% of saturation was collected by centrifugation and dissolved in buffer A. This preparation was dialyzed overnight against buffer A, and the dialyzed material was applied to a DEAE-cellulose column (5×40 cm) that had been equilibrated with buffer A. The sample was washed with 200 ml. of buffer A and eluted with 2 liters of buffer A that contained NaCl in a linear gradient running from a concentration of 0 to 0.5 M. Fractions of 15 ml. were collected. Fractions containing secondary alcohol dehydrogenase activity were pooled and were termed DEAE-cellulose eluate. The DEAE-cellulose eluate was concentrated by ammonium sulfate fractionation.
Secondary alcohol dehydrogenase activity was measured spectrophotometrically at 340 nm with a NAD^+ as an electron acceptor. The reaction mixture, in a total 3.0 ml., contained 50 mM phosphate buffer, pH 8.0, 5μ moles NAD^+, crude extracts, and subtrate. The reactions were started by addition of 100 μl of 0.1 M substrate and the rate of NAD^+ reduction was measured. Protein concentration was determined by the method of Lowry et al.
The substrate specificity of the purified secondary alcohol dehydrogenase was examined spectrophotometrically.

[2] = system: P(40) particulate fraction of Methylosinus sp. (CRL-15, NRRL B-11,202); assay: Oxidation of n-alkenes and n-alkanes by P(40) particulate fraction; format: biochemical; settings: substrate oxidized to its epoxide or alcohol, 30° C.
[3] = system: secondary alcohol dehydrogenase (SADH); assay: Purified secondary alcohol dehydrogenase activity (formation of reduced NAD); format: biochemical, Pseudomonas sp. ATCC 21439
Description: Secondary alcohol dehydrogenase (SADH) from an obligate methanol utilizer, Pseudomonas sp. ATCC 21439 was purified as follows. […] 0.05 M sodium phosphate buffer, pH 7.0 with 0.5 mM dithiothretol (buffer A) and were disrupted sonically (5×1 min.). The crude extract was separated by centrifugation. The crude extract was heat-treated at 50° C. in a water bath for 10 minutes. The resulting precipitate was removed by centrifugation. To the supernatant solution, 25 ml of protamine sulfate solution (2% solution in 0.1 M Tris base) was added dropwise with continuous stirring. After standing for 30 minutes, the extract was centrifuged. The supernatant solution was fractionated with solid ammonium sulfate. The material precipitating between 30 and 60% saturation was collected and was dialized overnight against buffer A. The The dialized material was applied to a DEAE-cellulose column (3 cm by 35 cm) that had been equilibrated with buffer A. The secondary alcohol dehydrogenase activity was eluted in the void volume. This DEAE-cellulose eluate was concentrated by ammonium sulfate fractionation. Material precipitating between 30 and 50% ammonium sulfate saturation was collected by centrifugation and dialyzed overnight against A. This fraction was further washed and filtered through an Amicon unit with XM 50 membrane. The concentrated fraction (6 ml) inside the Amicon unit was applied to an Affi-Gel Blue column (0.8 cm×18 cm) which had been equilibrated with buffer A for affinity chromatography. The column was washed overnight with buffer A (0.18 ml./min.) and then was eluted with buffer A containing 5 mM NAD. Each 1 ml. fraction was collected.
The purified secondary alcohol dehydrogenase enzyme (SADH) may be used directly for converting C3 -C6 secondary alcohols to the corresponding methyl ketones by the procedures described above; however, a source of NAD^+ must be added to the reaction medium. One can determine the NAD-linked secondary alcohol dehydrogenase activity with a fluorescence spectrophotometer (Perkin Elmer, Model MPF 44A) by following the formation of reduced NAD (Ex 340 nm, Em 460 nm). The assay system (3 ml.) will typically contain: sodium phosphate buffer pH 7.0, 150 μmol; NAD 1.0 μmol; a given amount of enzyme preparation; and 20 μmol secondary alcohol. The reaction is started by the addition of secondary alcohol. One unit of SADH enzyme activity represents the reduction of one nmole NAD per minute.
The effect of metal-chelating agents and thioreagents on the activity of the purified SADH enzyme were studied. […] The possibility of ethanol or n-propanol as an inhibitor was studied.

[4] = system: P(40) particulate fraction of Methylosinus sp. (CRL-15, NRRL B-11,202); assay: Effect of metals on propylene epoxidation and methane hydroxylation by P(40) fraction; format: biochemical; settings: metal 10^-3 M; for Methane-Oxidizing Activity in presence of metal: control 4.0; for Propylene-Oxidizing Activity in presence of metal: control […]
Description: The oxidation of methane and propylene by particulate [(P)40 and(P)80] fractions and soluble [S(80)] fraction was measured at 30° C. by estimating the production of methanol and propylene oxide, respectively. The reaction mixtures contained in 1.0 ml: 150 mM potassium phosphate buffer, pH 7.0 containing 5 mM MgCl2, 0.6 ml; 10 μmoles NADH, and cellular fraction.
Reaction mixtures were contained in 10 ml vials at 4° C. Vials were sealed with rubber caps. The gaseous phase in the vials was removed using vacuum and then was replaced with a gas mixture of methane or propylene and oxygen at a 1:1, v/v ratio. Oxidation of other gaseous n-alkanes and n-alkenes was examined as described above. For liquid substrates, 10 μl of substrate was used directly.
Since the methane mono-oxygenase from methane-utilizing bacteria is a copper or iron-containing protein (Tonge et al., J. Biochem., 161: 333-344 (1977)), we have examined the effect of copper and iron salts on the oxidation of methane and propylene by the P(40) particulate fraction of Methylosinus sp. (CRL-15, NRRL B-11,202). The rate of hydroxylation of methane to methanol and epoxidation of propylene to propylene oxide was increased twofold in the presence of added copper salts (Table XII).

[5] = system: Methylosinus trichosporium OB3b (NRRL B-11,196); assay: Effect of inhibitors on epoxidation of propylene and hydroxylation of methane, cell-containing enzyme preparation; format: cell-based; settings: NRRLB11, 1 h
[6] = system: Methylococcus capsulatus (CRL Ml, NRRL B-11,219); assay: as above; format: cell-based; settings: Methylococcus capsulatus, NRRLB11, 1 h
[7] = system: Methylobacterium organophilum (CRL 26, NRRL B-11,222); assay: as above; format: cell-based; settings: NRRLB11, 1 h
[8] = examined spectrophotometrically
[9] = purified SADH, each inhibitor 1 mM, measured spectrofluorometrically
[10] = read-out: % Inhibition, Epoxidation
[11] = read-out: % Inhibition, Hydroxylation

In the case of CC(O)CO (stereo not drawn) [1,2-propandiol], the “oxidation by the purified secondary alcohol dehydrogenase” value [1, 8] is reported as “not oxidized”.

For C=CCC [1-Butene], the “Rate of Product Formation” value [2] was 2.18 μ moles/hr/mg of protein.

With CCCCCC(C)O (stereo not drawn) [2-Heptanol] the “oxidation by the purified secondary alcohol dehydrogenase” value [1, 8] was “not oxidized”.

CCCCC(C)O (stereo not drawn) [2-hexanol] was tested, and the “substrate specificity of purified SADH” value [3] was “lower rate”, the “relative percent rate of oxidation by SADH” value (“relative percent rate” for short) ([3]; 2-butanol = 100%) was 2% and the “oxidation by the purified secondary alcohol dehydrogenase” value [1, 8] was “catalyzed the oxidation”.

For CCCCCCC(C)O (stereo not drawn) [2-octanol], the “oxidation by the purified secondary alcohol dehydrogenase” value [1, 8] was “not oxidized”.

For CCCC(C)O (stereo not drawn) [2-pentanol], the “substrate specificity of purified SADH” value [3] was “lower rate”, the “relative percent rate” value ([3]; 2-butanol = 100%) was 5% and the “oxidation by the purified secondary alcohol dehydrogenase” value [1, 8] was “catalyzed the oxidation”.

CC(C)O [2-propanol] was tested, and the “substrate specificity of purified SADH” value [3] was “highest”, the “relative percent rate” value ([3]; 2-butanol = 100%) was 85% and the “NAD^+ Reduced” value [1] was 5.4 µmol. For the same compound, the Product formed [1] was 5.5 µmol and the “oxidation by the purified secondary alcohol dehydrogenase” value [1, 8] was “catalyzed the oxidation”.

With O=C(O)c1cc(SSc2ccc([N+](=O)[O-])c(C(=O)O)c2)ccc1[N+](=O)[O-] [5,5'-dithiobis(2-nitrobenzoic acid)] the “% inhibition of SADH activity” value [3, 9] was 100% and the “% inhibition of SADH activity” value ([3]; purified SADH, each inhibitor 1 mM, measured spectrofluorometrically, listed as 5,5'-dithiobis (2-nitrobenzoic acid)) was “inhibited”.

For C=CC=C [Butadiene], the “Rate of Product Formation” value [2] was 0.63 μ moles/hr/mg of protein.

In the case of [Co+2] [Co^++], the “% inhibition of SADH activity” value [3, 9] is reported as 0%.

For O=S(=O)([O-])[O-].[Cu+2] [Cupric Sulfate], the “Methane-Oxidizing Activity in presence of metal” value (“Methane-Oxidizing Activity” below) [4] was 7.1 μmoles/hr/mg protein, the “Propylene-Oxidizing Activity in presence of metal” value (from here on “Propylene-Oxidizing Activity”) [4] was 9.0 μmoles/hr/mg protein and the “inhibition of secondary alcohol dehydrogenase activity” value [1] was “inhibited”.

In the case of [Cl][Cu] [Cuprous Chloride], the “Methane-Oxidizing Activity” value [4] is reported as 7.2 μmoles/hr/mg protein and the “Propylene-Oxidizing Activity” value [4] is reported as 9.2 μmoles/hr/mg protein.

For CC [Ethane], the “Rate of Product Formation” value [2] was 3.2 μ moles/hr/mg of protein.

For C=C [Ethylene], the “Rate of Product Formation” value [2] was 1.27 μ moles/hr/mg of protein.

For [Cl][Fe]([Cl])[Cl] [Ferric Chloride], the “Methane-Oxidizing Activity” value [4] was 4.8 μmoles/hr/mg protein and the “Propylene-Oxidizing Activity” value [4] was 5.8 μmoles/hr/mg protein.

For c1c[nH]cn1 [Imidazole], the inhibition at 1000 µM [5, 10] was 95%, the inhibition at 1000 µM [5, 11] was 90% and the inhibition at 1000 µM [6, 10] was 95%. It also gave an inhibition at 1000 µM [6, 11] of 95%, an inhibition at 1000 µM [7, 10] of 100% and an inhibition at 1000 µM [7, 11] of 100%. For the same compound, the “inhibition of secondary alcohol dehydrogenase activity” value [1] was “strongly inhibited”.

For [Mg+2] [Mg^++], the “% inhibition of SADH activity” value [3, 9] was 0%.

[Mn+2] [Mn^++] was tested, and the “% inhibition of SADH activity” value [3, 9] was 0%.

In the case of CCN1C(=O)C=CC1=O [N-ethylmalemide], the “% inhibition of SADH activity” value [3, 9] is reported as 6% and the “% inhibition of SADH activity” value ([3]; purified SADH, each inhibitor 1 mM, measured spectrofluorometrically, listed as N-ethylmaleimide) is reported as “not inhibited”.

For [Zn+2] [Zn^++], the “% inhibition of SADH activity” value [3, 9] was 0% and the “% inhibition of SADH activity” value ([3]; purified SADH, each inhibitor 1 mM, measured spectrofluorometrically, listed as zinc) was “did not stimulate”.

In the case of CC=O [acetaldehyde], the “substrate specificity of purified SADH” value [3] is reported as “lower rate” and the “relative percent rate” value ([3]; 2-butanol = 100%) is reported as 4%.

For O=Cc1ccccc1 [benzaldehyde], the “relative percent rate” value ([3]; 2-butanol = 100%) was “not oxidized”.

For CCCCO [butan-1-ol], the “oxidation by the purified secondary alcohol dehydrogenase” value [1] was “not oxidized”.

For CCC(O)CO (stereo not drawn) [butane 1,2-diol], the “relative percent rate” value ([3]; 2-butanol = 100%) was “not oxidized” and the “oxidation by the purified secondary alcohol dehydrogenase” value [1, 8] was “not oxidized”.

With CC(O)CCO (stereo not drawn) [butane 1,3-diol] the “substrate specificity of purified SADH” value [3] was “lower rate”, the “relative percent rate” value ([3]; 2-butanol = 100%) was 2% and the “oxidation by the purified secondary alcohol dehydrogenase” value [1, 8] was “not oxidized”.

CC(O)C(C)O (stereo not drawn) [butane 2,3-diol] was tested, and the “substrate specificity of purified SADH” value [3] was “lower rate” and the “relative percent rate” value ([3]; 2-butanol = 100%) was 2.5%.

With [Cu+2] [cupric] the “% inhibition of SADH activity” value [3, 9] was 25%.

With OC1CCCCC1 [cyclohexanol] the “substrate specificity of purified SADH” value [3] was “lower rate” and the “relative percent rate” value ([3]; 2-butanol = 100%) was 4%.

In the case of CCO [ethanol], the “% inhibition of SADH activity” value [3] is reported as “did not inhibit” and the “oxidation by the purified secondary alcohol dehydrogenase” value [1] is reported as “not oxidized”.

[Fe+3] [ferric] was tested, and the “% inhibition of SADH activity” value [3, 9] was 35%.

With [Fe+2] [ferrous] the “% inhibition of SADH activity” value [3, 9] was 50%.

C=O [formaldehyde] was tested, and the “relative percent rate” value [3] was “not oxidized”.

With CC(C)CO [isobutanol] the “relative percent rate” value ([3]; 2-butanol = 100%) was “not oxidized”.

In the case of N#C[S][Hg][S]C#N [mercuric thiocyanate], the “inhibition of secondary alcohol dehydrogenase activity” value [1] is reported as “inhibited”.

CO [methanol] was tested, and the “oxidation by the purified secondary alcohol dehydrogenase” value [1, 8] was “not oxidized”.

In the case of CCCO [n-propanol], the “% inhibition of SADH activity” value [3] is reported as “did not inhibit” and the “oxidation by the purified secondary alcohol dehydrogenase” value [1] is reported as “not oxidized”.

[Ni+2] [nickel] was tested, and the “% inhibition of SADH activity” value [3, 9] was 20%.

O=C(O)c1cc[c]([Hg+])cc1.[OH-] [p-hydroxymercuribenzoate] was tested, and the “% inhibition of SADH activity” value [3, 9] was 100% and the “inhibition of secondary alcohol dehydrogenase activity” value [1] was “strongly inhibited”.

With CCCCCO [pentan-1-ol] the “oxidation by the purified secondary alcohol dehydrogenase” value [1, 8] was “not oxidized”.

In the case of Oc1ccccc1 [phenol], the “relative percent rate” value [3] is reported as “not oxidized”.

For O=[N+]([O-])[O-].[Ag+] [silver nitrate], the “inhibition of secondary alcohol dehydrogenase activity” value [1] was “inhibited”.

In the case of O=C(O)CCC(=O)O [succinic acid], the “relative percent rate” value ([3]; 2-butanol = 100%) is reported as “not oxidized”.

For Ferrous Sulfate, the “Methane-Oxidizing Activity” value [4] was 4.8 μmoles/hr/mg protein and the “Propylene-Oxidizing Activity” value [4] was 5.9 μmoles/hr/mg protein.

For cytochrome c, the “electron acceptor for the purified enzyme” value [1] was “could not act as electron carrier”.
